This is an account of results in patent publication US11123337B2, “4-methylsulfonyl-substituted piperidine urea compounds” (MYOKARDIA, INC., priority 2015, dated 2021).

Sequence of bovine cardiac myosin (Q9BE39 whole entry): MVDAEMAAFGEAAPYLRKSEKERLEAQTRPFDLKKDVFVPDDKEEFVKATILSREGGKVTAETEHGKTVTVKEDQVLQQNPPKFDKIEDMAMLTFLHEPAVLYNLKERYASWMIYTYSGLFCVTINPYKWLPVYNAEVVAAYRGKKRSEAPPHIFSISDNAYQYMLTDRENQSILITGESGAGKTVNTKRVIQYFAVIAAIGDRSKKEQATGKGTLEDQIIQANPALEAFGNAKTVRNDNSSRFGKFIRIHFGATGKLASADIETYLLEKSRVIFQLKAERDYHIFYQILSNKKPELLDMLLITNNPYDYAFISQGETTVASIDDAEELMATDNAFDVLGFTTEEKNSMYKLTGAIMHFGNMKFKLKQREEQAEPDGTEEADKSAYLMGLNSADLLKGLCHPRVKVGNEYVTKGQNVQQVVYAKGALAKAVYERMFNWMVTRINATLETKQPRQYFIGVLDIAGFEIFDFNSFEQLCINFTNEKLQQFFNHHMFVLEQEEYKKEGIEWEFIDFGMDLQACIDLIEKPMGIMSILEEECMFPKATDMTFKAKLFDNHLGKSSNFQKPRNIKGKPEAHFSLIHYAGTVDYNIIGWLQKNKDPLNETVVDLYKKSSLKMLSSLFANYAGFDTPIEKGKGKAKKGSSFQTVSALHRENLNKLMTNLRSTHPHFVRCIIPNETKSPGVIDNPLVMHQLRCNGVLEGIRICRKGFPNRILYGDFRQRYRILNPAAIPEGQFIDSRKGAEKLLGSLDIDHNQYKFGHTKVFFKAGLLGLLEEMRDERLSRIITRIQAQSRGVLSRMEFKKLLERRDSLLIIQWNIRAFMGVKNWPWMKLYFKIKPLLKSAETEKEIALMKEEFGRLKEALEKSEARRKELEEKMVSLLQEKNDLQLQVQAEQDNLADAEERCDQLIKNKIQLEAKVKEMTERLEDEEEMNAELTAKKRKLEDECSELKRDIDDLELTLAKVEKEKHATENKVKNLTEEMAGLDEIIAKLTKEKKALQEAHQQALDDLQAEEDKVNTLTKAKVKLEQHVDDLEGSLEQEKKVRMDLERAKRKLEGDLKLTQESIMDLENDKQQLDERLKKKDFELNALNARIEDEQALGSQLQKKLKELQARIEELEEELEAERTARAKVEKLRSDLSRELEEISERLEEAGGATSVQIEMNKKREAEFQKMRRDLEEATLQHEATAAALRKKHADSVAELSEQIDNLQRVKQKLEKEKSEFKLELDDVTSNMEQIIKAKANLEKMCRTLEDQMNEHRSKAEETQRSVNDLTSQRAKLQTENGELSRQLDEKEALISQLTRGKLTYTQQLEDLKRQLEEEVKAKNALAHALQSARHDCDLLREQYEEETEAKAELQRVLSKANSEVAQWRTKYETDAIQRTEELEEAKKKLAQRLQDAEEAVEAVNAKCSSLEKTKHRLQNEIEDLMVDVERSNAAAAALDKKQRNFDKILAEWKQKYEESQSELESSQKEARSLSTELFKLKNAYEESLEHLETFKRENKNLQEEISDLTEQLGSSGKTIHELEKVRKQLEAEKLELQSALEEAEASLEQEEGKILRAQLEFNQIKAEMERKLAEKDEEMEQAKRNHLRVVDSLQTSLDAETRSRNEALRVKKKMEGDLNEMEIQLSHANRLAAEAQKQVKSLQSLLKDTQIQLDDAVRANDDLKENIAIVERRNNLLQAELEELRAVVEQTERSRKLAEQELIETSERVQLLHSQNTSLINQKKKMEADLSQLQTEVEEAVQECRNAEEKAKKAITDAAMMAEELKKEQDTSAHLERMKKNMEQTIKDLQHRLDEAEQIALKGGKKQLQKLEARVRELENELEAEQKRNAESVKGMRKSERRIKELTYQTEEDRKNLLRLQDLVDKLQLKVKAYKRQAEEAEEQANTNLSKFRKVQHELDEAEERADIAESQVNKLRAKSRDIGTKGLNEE
Sequence of bovine cardiac myosin (P85100 whole entry partner): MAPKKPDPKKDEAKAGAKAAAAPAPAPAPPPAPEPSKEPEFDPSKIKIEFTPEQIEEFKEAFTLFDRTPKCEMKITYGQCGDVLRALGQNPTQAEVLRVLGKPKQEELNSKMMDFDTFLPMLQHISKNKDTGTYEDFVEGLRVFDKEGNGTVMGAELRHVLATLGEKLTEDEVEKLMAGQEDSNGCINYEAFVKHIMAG
Sequence of bovine cardiac myosin (Q3SZE5 whole entry partner): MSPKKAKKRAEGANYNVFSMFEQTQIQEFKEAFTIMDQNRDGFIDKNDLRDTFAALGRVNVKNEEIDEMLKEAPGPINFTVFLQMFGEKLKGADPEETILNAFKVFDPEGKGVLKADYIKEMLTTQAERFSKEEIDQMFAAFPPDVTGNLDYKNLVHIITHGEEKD

The assay concerns the target bovine cardiac myosin (Bos taurus, UniProt Q9BE39). Briefly: Myosin activation assay (PK/LDH-coupled ATPase, bovine cardiac myofibrils). Format: biochemical. Particulars: AC20 = concentration at which total response is increased by twenty percent. A digest of the protocol: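 Values are the concentrations raising the ATPase rate by 20% or 50% over DMSO, from 10-point dose responses fitted with four parameters. Rate is NADH loss at 340 nm via PK/LDH coupling, read 15 min at room temperature, in pH 6.8 PIPES with 50 μM ATP. Bovine cardiac myofibrils were held at pCa ~6 or pCa 10.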
Take `CN(C)c1ncccc1S(=O)(=O)C(F)(F)C1CCN(C(=O)Nc2ccnnc2)CC1` [Compound 96, 4-(((2-(dimethylamino)pyridin-3-yl)sulfonyl)difluoromethyl)-N-(pyridazin-4-yl)piperidine-1-carboxamide]: the “Myosin Activation (AC20)” value is “+ (+ represents myosin activation value AC20 > 5 μM)”.

`C[C@](F)(C1CCN(C(=O)Nc2cnc3c(c2)CNC3=O)CC1)S(=O)(=O)c1cccc(F)c1` [Compound 301, (R)-4-(1-fluoro-1-((3-fluorophenyl)sulfonyl)ethyl)-N-(7-oxo-6,7-dihydro-5H-pyrrolo[3,4-b]pyridin-3-yl)piperidine-1-carboxamide]: the “Myosin Activation (AC20)” value is recorded as “++ (++ represents myosin activation value AC20 from 2 μM-5 μM)”.

As to `Cn1cc(S(=O)(=O)[C@@](C)(F)C2CCN(C(=O)Nc3ccc(C#N)nc3)CC2)c(C(F)F)n1` [Compound 299, (R)-N-(6-cyanopyridin-3-yl)-4-(1-((3-(difluoromethyl)-1-methyl-1H-pyrazol-4-yl)sulfonyl)-1-fluoroethyl)piperidine-1-carboxamide], the “Myosin Activation (AC20)” value is recorded as “+++ (+++ represents myosin activation value AC20 < 2 μM)”.

With `CC(F)(F)C(C)(C1CCN(C(=O)Nc2ccnnc2)CC1)S(=O)(=O)c1cccc(F)c1` (stereo not drawn) [Compound 178, 4-(3,3-difluoro-2-((3-fluorophenyl)sulfonyl)butan-2-yl)-N-(pyridazin-4-yl)piperidine-1-carboxamide], the “Myosin Activation (AC20)” value is given as “+++ (+++ represents myosin activation value AC20 < 2 μM)”.

`CC(C)(C1CCN(C(=O)Nc2ccns2)CC1)S(=O)(=O)c1ccccc1C#N` [Compound 201, 4-(2-((2-cyanophenyl)sulfonyl)propan-2-yl)-N-(isothiazol-5-yl)piperidine-1-carboxamide]: the “Myosin Activation (AC20)” value is on record as “+ (+ represents myosin activation value AC20 > 5 μM)”.

Take `Cc1ccc(NC(=O)N2CCC([C@](C)(F)S(=O)(=O)c3cn(C)nc3C(F)F)CC2)cn1` [Compound 260, (R)-4-(1-((3-(difluoromethyl)-1-methyl-1H-pyrazol-4-yl)sulfonyl)-1-fluoroethyl)-N-(6-methylpyridin-3-yl)piperidine-1-carboxamide]: the “Myosin Activation (AC20)” value is recorded as “++ (++ represents myosin activation value AC20 from 2 μM-5 μM)”.

`CC(C)(C1CCN(C(=O)Nc2nccs2)CC1)S(=O)(=O)c1cccc(F)c1` [Compound 156, 4-(2-((3-fluorophenyl)sulfonyl)propan-2-yl)-N-(thiazol-2-yl)piperidine-1-carboxamide]: the “Myosin Activation (AC20)” value is on record as “+ (+ represents myosin activation value AC20 > 5 μM)”.

Take `O=C(Nc1ccnnc1)N1CCC(C(F)(F)S(=O)(=O)c2ccccc2-n2cccn2)CC1` [Compound 95, 4-(((2-(1H-pyrazol-1-yl)phenyl)sulfonyl)difluoromethyl)-N-(pyridazin-4-yl)piperidine-1-carboxamide]: the “Myosin Activation (AC20)” value is listed as “+ (+ represents myosin activation value AC20 > 5 μM)”.

For the molecule `Cn1cc(S(=O)(=O)[C@](C)(F)C2CCN(C(=O)Nc3ccon3)CC2)c(C(F)F)n1` [Compound 21, (S)-4-(1-((3-(Difluoromethyl)-1-methyl-1H-pyrazol-4-yl)sulfonyl)-1-fluoroethyl)-N-(isoxazol-3-yl)piperidine-1-carboxamide], the “Myosin Activation (AC20)” value was “+ (+ represents myosin activation value AC20 > 5 μM)”.

Take `CC(C)n1cc(S(=O)(=O)CC2CCN(C(=O)Nc3ccncc3)CC2)cn1` [Compound 1, 4-(((1-Isopropyl-1H-pyrazol-4-yl)sulfonyl)methyl)-N-(pyridin-4-yl)piperidine-1-carboxamide]: the “Myosin Activation (AC20)” value is listed as “+ (+ represents myosin activation value AC20 > 5 μM)”.

`Cn1nc(C(F)F)cc1S(=O)(=O)C(C)(C)C1CCN(C(=O)Nc2ccnnc2)CC1` [Compound 122, 4-(2-((3-(difluoromethyl)-1-methyl-1H-pyrazol-5-yl)sulfonyl)propan-2-yl)-N-(pyridazin-4-yl)piperidine-1-carboxamide]: the “Myosin Activation (AC20)” value was “+++ (+++ represents myosin activation value AC20 < 2 μM)”.

Take `CC(C)(C1CCN(C(=O)Nc2cccnc2)CC1)S(=O)(=O)c1cccc(F)c1` [Compound 133, 4-(2-((3-fluorophenyl)sulfonyl)propan-2-yl)-N-(pyridin-3-yl)piperidine-1-carboxamide]: the “Myosin Activation (AC20)” value is on record as “++ (++ represents myosin activation value AC20 from 2 μM-5 μM)”.

As for `Cn1cc(S(=O)(=O)C(F)(F)C2CCN(C(=O)Nc3ccon3)CC2)c(C(F)F)n1` [Compound 82, 4-(((3-(difluoromethyl)-1-methyl-1H-pyrazol-4-yl)sulfonyl)difluoromethyl)-N-(isoxazol-3-yl)piperidine-1-carboxamide], the “Myosin Activation (AC20)” value is listed as “+ (+ represents myosin activation value AC20 > 5 μM)”.

For the molecule `Cc1cc(NC(=O)N2CCC(C(C)(C)S(=O)(=O)c3cccc(F)c3)CC2)no1` [Compound 142, 4-(2-((3-fluorophenyl)sulfonyl)propan-2-yl)-N-(5-methylisoxazol-3-yl)piperidine-1-carboxamide], the “Myosin Activation (AC20)” value is listed as “+ (+ represents myosin activation value AC20 > 5 μM)”.

With `Cn1cc(S(=O)(=O)C(F)(F)C2CCN(C(=O)Nc3ccnnc3)CC2)c(C(F)F)n1` [Compound 83, 4-(((3-(difluoromethyl)-1-methyl-1H-pyrazol-4-yl)sulfonyl)difluoromethyl)-N-(pyridazin-4-yl)piperidine-1-carboxamide], the “Myosin Activation (AC20)” value is given as “++ (++ represents myosin activation value AC20 from 2 μM-5 μM)”.

As for `Cn1nc(C(F)F)cc1S(=O)(=O)C(C)(C)C1CCN(C(=O)Nc2ccc(F)nc2)CC1` [Compound 106, 4-(2-((3-(difluoromethyl)-1-methyl-1H-pyrazol-5-yl)sulfonyl)propan-2-yl)-N-(6-fluoropyridin-3-yl)piperidine-1-carboxamide], the “Myosin Activation (AC20)” value was “++ (++ represents myosin activation value AC20 from 2 μM-5 μM)”.

On to `CC(C)(C1CCN(C(=O)Nc2ccnnc2)CC1)S(=O)(=O)c1ccccc1Cl` [Compound 197, 4-(2-((2-chlorophenyl)sulfonyl)propan-2-yl)-N-(pyridazin-4-yl)piperidine-1-carboxamide], for which the “Myosin Activation (AC20)” value is on record as “+++ (+++ represents myosin activation value AC20 < 2 μM)”.

In the case of `Cc1ccc(NC(=O)N2CCC(C(C)(F)S(=O)(=O)c3cn(C)nc3C(F)(F)F)CC2)cn1` (stereo not drawn) [Compound 247, 4-(1-fluoro-1-((1-methyl-3-(trifluoromethyl)-1H-pyrazol-4-yl)sulfonyl)ethyl)-N-(6-methylpyridin-3-yl)piperidine-1-carboxamide], the “Myosin Activation (AC20)” value was “+ (+ represents myosin activation value AC20 > 5 μM)”.

With `N#Cc1ccccc1S(=O)(=O)C1(C2CCN(C(=O)Nc3ccnnc3)CC2)CC1` [Compound 200, 4-(1-((2-cyanophenyl)sulfonyl)cyclopropyl)-N-(pyridazin-4-yl)piperidine-1-carboxamide], the “Myosin Activation (AC20)” value was “++ (++ represents myosin activation value AC20 from 2 μM-5 μM)”.

With `CC(F)(C1CCN(C(=O)Nc2ccc(F)nc2)CC1)S(=O)(=O)c1cccc(F)c1` (stereo not drawn) [Compound 239, 4-(1-fluoro-1-((3-fluorophenyl)sulfonyl)ethyl)-N-(6-fluoropyridin-3-yl)piperidine-1-carboxamide], the “Myosin Activation (AC20)” value is given as “++ (++ represents myosin activation value AC20 from 2 μM-5 μM)”.

With `Cn1cc(S(=O)(=O)C(C)(C)C2CCN(C(=O)Nc3ccnnc3)CC2)c(C(F)(F)F)n1` [Compound 120, 4-(2-((1-methyl-3-(trifluoromethyl)-1H-pyrazol-4-yl)sulfonyl)propan-2-yl)-N-(pyridazin-4-yl)piperidine-1-carboxamide], the “Myosin Activation (AC20)” value is reported as “++ (++ represents myosin activation value AC20 from 2 μM-5 μM)”.

In the case of `CC(F)(C1CCN(C(=O)Nc2ccon2)CC1)S(=O)(=O)c1cccc(C#N)c1` (stereo not drawn) [Compound 282, 4-(1-((3-cyanophenyl)sulfonyl)-1-fluoroethyl)-N-(isoxazol-3-yl)piperidine-1-carboxamide], the “Myosin Activation (AC20)” value is “++ (++ represents myosin activation value AC20 from 2 μM-5 μM)”.

In the case of `Cn1nc(C(F)(F)F)cc1S(=O)(=O)C(C)(C)C1CCN(C(=O)Nc2ccnnc2)CC1` [Compound 137, 4-(2-((1-methyl-3-(trifluoromethyl)-1H-pyrazol-5-yl)sulfonyl)propan-2-yl)-N-(pyridazin-4-yl)piperidine-1-carboxamide], the “Myosin Activation (AC20)” value is on record as “+++ (+++ represents myosin activation value AC20 < 2 μM)”.

Take `Cn1cc(S(=O)(=O)[C@@](C)(F)C2CCN(C(=O)Nc3cocn3)CC2)c(C(F)F)n1` [Compound 248, (R)-4-(1-((3-(difluoromethyl)-1-methyl-1H-pyrazol-4-yl)sulfonyl)-1-fluoroethyl)-N-(oxazol-4-yl)piperidine-1-carboxamide]: the “Myosin Activation (AC20)” value is “+ (+ represents myosin activation value AC20 > 5 μM)”.

As to `CCn1nccc1S(=O)(=O)C(C)(C)C1CCN(C(=O)Nc2ccnnc2)CC1` [Compound 185, 4-(2-((1-ethyl-1H-pyrazol-5-yl)sulfonyl)propan-2-yl)-N-(pyridazin-4-yl)piperidine-1-carboxamide], the “Myosin Activation (AC20)” value is listed as “+ (+ represents myosin activation value AC20 > 5 μM)”.

For the molecule `CC(F)(C1CCN(C(=O)Cc2ccnnc2)CC1)S(=O)(=O)c1cccc(F)c1` (stereo not drawn) [Compound 10, 1-(4-(1-Fluoro-1-((3-fluorophenyl)sulfonyl)ethyl)piperidin-1-yl)-2-(pyridazin-4-yl)ethan-1-one], the “Myosin Activation (AC20)” value was “+ (+ represents myosin activation value AC20 > 5 μM)”.

Take `O=C(Nc1ccns1)N1CCC(C2(S(=O)(=O)c3ccc(OC(F)(F)F)cc3)CC2)CC1` [Compound 207, N-(isothiazol-5-yl)-4-(1-((4-(trifluoromethoxy)phenyl)sulfonyl)cyclopropyl)piperidine-1-carboxamide]: the “Myosin Activation (AC20)” value is “+++ (+++ represents myosin activation value AC20 < 2 μM)”.
